Tests used:
[1] = molecular target: T1, acetylcholinesterase (AChE) from electrophorus electricus (Electrophorus electricus, UniProt O42275); test: biochemical; format: biochemical; conditions: for IC50: Ellman's method, 96-well plate, enzyme with compound incubated 20 min at 37 °C, phosphate buffer pH 8.0, three measurements; for Selectivity AChE: ratio of the IC50 values (BuChE/AChE), definition not given
T1 construct: purchased Sigma-Aldrich
Method: (§1) To determine the inhibitory properties of the tested compounds against acetylcholinesterase and butyrylcholinesterase, Ellman’s method was used. […] For each system, measurements were carried out three times. Dose–response curve functions were fitted to the obtained results.
(§2) The following reagents were used to evaluate the inhibiting activity: acetylcholinesterase (AChE) from electrophorus electricus (Sigma-Aldrich, Saint Louis, MO, USA), butyrylcholinesterase (BuChE) from horse serum, acetylthiocholine iodide (Sigma-Aldrich, Saint Louis, MO, USA), butyrylthiocholine iodide (Sigma-Aldrich, Saint Louis, MO, USA), 5,5′-Dithiobis-(2-nitrobenzoic acid) (DTNB, Sigma-Aldrich, Saint Louis, MO, USA). The enzymes were prepared by dissolving in phosphate buffer, pH = 8.0) with the final concentration 2 U/mL for AChE and 4 U/mL for BuChE. The stock solutions of acetylthiocholine iodide (10^−3 mol/dm^3), butyrylthiocholine iodide (10^−3 mol/dm^3) and DTNB (10^−3 mol/dm^3) were prepared in phosphate buffer. The inhibitory activity of derivatives was evaluated by Ellman’s colorimetric method in a 96-well plate. First, the enzyme solution with the tested compound was incubated for 20 min at 37 °C. Next, acetylthiocholine iodide or butyrylthiocholine iodide and DTNB were added.

[2] = molecular target: T2, butyrylcholinesterase (BuChE) from horse serum (Equus caballus, UniProt P81908); test: biochemical; conditions: for IC50: Ellman's method, 96-well plate, enzyme with compound incubated 20 min at 37 °C, phosphate buffer pH 8.0, three measurements; for Selectivity BuChE: ratio of the IC50 values (AChE/BuChE), definition not given
T2 construct: butyrylcholinesterase (BuChE) from horse serum; from tissue; host or cells: horse serum
T2 sequence (P81908 whole entry): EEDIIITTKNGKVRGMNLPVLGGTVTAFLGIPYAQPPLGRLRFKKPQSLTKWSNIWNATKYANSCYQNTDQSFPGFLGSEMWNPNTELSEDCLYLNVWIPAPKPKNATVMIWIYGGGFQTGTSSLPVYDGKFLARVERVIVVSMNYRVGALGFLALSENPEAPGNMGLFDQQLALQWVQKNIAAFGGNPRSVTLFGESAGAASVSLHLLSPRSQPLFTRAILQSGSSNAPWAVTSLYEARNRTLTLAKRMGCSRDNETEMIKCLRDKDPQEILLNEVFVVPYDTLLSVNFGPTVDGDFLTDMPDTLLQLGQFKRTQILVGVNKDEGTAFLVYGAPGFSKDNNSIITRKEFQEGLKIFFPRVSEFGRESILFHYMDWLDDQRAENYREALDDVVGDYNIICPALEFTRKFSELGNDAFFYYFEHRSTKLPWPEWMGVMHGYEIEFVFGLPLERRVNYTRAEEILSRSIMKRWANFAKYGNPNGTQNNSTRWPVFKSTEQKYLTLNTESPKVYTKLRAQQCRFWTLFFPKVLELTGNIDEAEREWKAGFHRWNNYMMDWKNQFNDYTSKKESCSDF
Method: as §1, §2

T1 sequence (O42275 24-633): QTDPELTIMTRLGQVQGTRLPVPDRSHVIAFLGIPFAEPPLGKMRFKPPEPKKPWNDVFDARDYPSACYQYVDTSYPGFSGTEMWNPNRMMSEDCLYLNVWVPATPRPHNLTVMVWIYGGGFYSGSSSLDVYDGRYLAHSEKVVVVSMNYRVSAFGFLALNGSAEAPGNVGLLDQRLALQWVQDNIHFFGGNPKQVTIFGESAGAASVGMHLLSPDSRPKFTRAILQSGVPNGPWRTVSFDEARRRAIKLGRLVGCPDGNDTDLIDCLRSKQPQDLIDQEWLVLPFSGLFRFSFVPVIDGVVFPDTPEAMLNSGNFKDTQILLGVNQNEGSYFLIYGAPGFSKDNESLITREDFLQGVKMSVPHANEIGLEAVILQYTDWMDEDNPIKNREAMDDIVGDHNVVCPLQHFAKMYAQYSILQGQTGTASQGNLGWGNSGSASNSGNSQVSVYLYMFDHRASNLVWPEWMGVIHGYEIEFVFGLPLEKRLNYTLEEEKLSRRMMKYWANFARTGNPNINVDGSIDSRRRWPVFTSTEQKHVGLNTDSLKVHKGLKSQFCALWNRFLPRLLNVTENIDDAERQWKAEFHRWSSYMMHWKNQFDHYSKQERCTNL

| Structure (SMILES) | IC50 [1] | Selectivity AChE [1] | IC50 [2] | Selectivity BuChE [2] | AChE inhibitory activity compared to derivative I ([1]; compared to the derivative with a benzene ring (I)) |
| --- | --- | --- | --- | --- | --- |
| O=C1c2ccccc2C(=O)N1CCN1CCN(c2ccccc2)CC1 [Compound I, N-[2-(4-phenyl-1-piperazinyl)ethyl]-1H-isoindole-1,3(2H)-dione] | 1.12 ± 0.3 µM | 22.02 | 24.7 ± 1.74 µM | 0.05 | – |
| O=C1c2ccccc2C(=O)N1CCN1CCOCC1 [Compound V, N-(2-morpholine)ethyl-1H-isoindole-1,3(2H)-dione] | 16.2 ± 2.37 µM | – | > 1000 µM | – | – |
| O=C1c2ccccc2C(=O)N1CCN1CCc2ccccc2C1 [Compound VI] | 1.14 ± 0.17 µM | 45.71 | 52.1 ± 9.73 µM | 0.02 | – |
| O=C1c2ccccc2C(=O)N1CCN1CCN(c2ccc(C(F)(F)F)cc2)CC1 [II, N-{2-[4-(4-trifluoromethylphenyl)-1-piperazinyl]ethyl}-1H-isoindole-1,3(2H)-dione] | 2.31 ± 0.36 µM | 10.70 | 24.7 ± 3.78 µM | 0.09 | – |
| O=C1c2ccccc2C(=O)N1CCN1CCN(C(c2ccccc2)c2ccccc2)CC1 [III, N-{2-[4-(4-diphenylomethylo)-1-piperazinyl]ethyl}-1H-isoindole-1,3(2H)-dione] | 1.94 ± 0.43 µM | 10.95 | 21.2 ± 4.84 µM | 0.09 | – |
| O=C1c2ccccc2C(=O)N1CCN1CCN(c2ncccn2)CC1 [IV] | 3.9 ± 0.43 µM | 17.66 | 68.9 ± 7.82 µM | 0.06 | about four-times less activity |

Source: paper PMC11313788, “A Series of Novel 1-H-isoindole-1,3(2H)-dione Derivatives as Acetylcholinesterase and Butyrylcholinesterase Inhibitors: In Silico, Synthesis and In Vitro Studies” (Molecules, 2024)
